From PubChem BioAssay (NCI) come the findings set out here.

Structures are written as SMILES.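 Compound exposure: 48 hours, 5 concentrations, 96-well plates. At the TGI there is no net growth.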

Test systems include A549 NSCLC; ACHN renal; BT-549 breast; DU-145 prostate; HL-60(TB) leukemia; HOP-62 NSCLC; HOP-92 NSCLC; LOX IMVI melanoma; MCF7 breast; MDA-MB-435; NCI-H460 lung; NCI-H522 lung; OVCAR-3 ovarian; OVCAR-4 ovarian; PC-3 prostate; SF-268 CNS; SK-OV-3 ovarian; SN12C renal.
Experiment in all cases: NCI-60 cell line screen, 48 h

Regarding `O=C1OC(C2(O)OC(=O)c3ccccc32)c2ccccc21` (centres undefined), the TGI in the experiment with A549 NSCLC, in the experiment with ACHN renal, in the experiment on BT-549 breast, in the experiment on DU-145 prostate, with HL-60(TB) leukemia and with HOP-62 NSCLC was greater than 100 µM each time. The TGI in the experiment with HOP-92 NSCLC, in the experiment on LOX IMVI melanoma, in the experiment on MCF7 breast, in the experiment on MDA-MB-435, in the experiment on NCI-H460 lung and in the experiment on NCI-H522 lung was greater than 100 µM in each case. In addition, the TGI in the experiment on OVCAR-3 ovarian, in the experiment with OVCAR-4 ovarian, in the experiment with PC-3 prostate, in the experiment on SF-268 CNS, with SK-OV-3 ovarian and in the experiment on SN12C renal was greater than 100 µM throughout.

For the molecule `NC(=O)SCCC(N)C(=O)O` (centres undefined), the TGI in the experiment on A549 NSCLC, in the experiment on ACHN renal, with BT-549 breast, with DU-145 prostate, in the experiment with HL-60(TB) leukemia and in the experiment with HOP-62 NSCLC was greater than 100 µM each time. Further, the TGI with HOP-92 NSCLC, in the experiment with LOX IMVI melanoma, in the experiment on MCF7 breast, with MDA-MB-435, with NCI-H460 lung and in the experiment with NCI-H522 lung was greater than 100 µM each time. The TGI in the experiment on OVCAR-3 ovarian, with OVCAR-4 ovarian, with PC-3 prostate, in the experiment with SF-268 CNS, in the experiment on SK-OV-3 ovarian and with SN12C renal was greater than 100 µM each time.

Regarding `CC(C)Oc1cccc(N2C(=NCCc3c[nH]c4ccccc34)Nc3ccncc3S2(=O)=O)c1`, the TGI with A549 NSCLC was greater than 100 µM; in the experiment with ACHN renal it was greater than 100 µM; in the experiment with BT-549 breast it was greater than 100 µM; with DU-145 prostate, greater than 100 µM; in the experiment on HL-60(TB) leukemia, 65.4 µM; in the experiment with HOP-62 NSCLC it was greater than 100 µM. Further, the TGI in the experiment on HOP-92 NSCLC, in the experiment on LOX IMVI melanoma, with MCF7 breast, in the experiment with MDA-MB-435, in the experiment on NCI-H460 lung and in the experiment with NCI-H522 lung was greater than 100 µM each time. Moreover, the TGI in the experiment with OVCAR-3 ovarian, in the experiment on OVCAR-4 ovarian, in the experiment with PC-3 prostate, in the experiment with SF-268 CNS, in the experiment with SK-OV-3 ovarian and with SN12C renal was greater than 100 µM throughout.

`OC(c1ccc2c(c1)OCO2)c1ccc2c(c1)OCO2`: the TGI with A549 NSCLC, with ACHN renal, with BT-549 breast, in the experiment with DU-145 prostate, with HL-60(TB) leukemia and in the experiment on HOP-62 NSCLC was greater than 100 µM throughout. Moreover, the TGI with HOP-92 NSCLC, in the experiment with LOX IMVI melanoma, with MCF7 breast, in the experiment with MDA-MB-435, in the experiment on NCI-H460 lung and with NCI-H522 lung was greater than 100 µM in each case. Besides, the TGI in the experiment on OVCAR-3 ovarian, in the experiment with OVCAR-4 ovarian, in the experiment on PC-3 prostate, in the experiment on SF-268 CNS, with SK-OV-3 ovarian and with SN12C renal was greater than 100 µM throughout.

On to `CC(=O)OCC1OC(O[C@@H]2C[C@H]3C(C)(C)[C@@H](OC(C)=O)CC[C@]3(C)[C@H]3CC[C@]45C[C@]4(CC[C@H]5[C@@H](C)C[C@@H](O)[C@H](O)C(C)(C)F)[C@@]32C)C(O)C(O)C1O` (some centres undefined), for which the TGI is 3.12 µM with A549 NSCLC; greater than 100 µM in the experiment with ACHN renal; 3.4 µM in the experiment with BT-549 breast; greater than 100 µM in the experiment on DU-145 prostate; 2.75 µM with HL-60(TB) leukemia; greater than 100 µM in the experiment with HOP-62 NSCLC. Besides, the TGI with HOP-92 NSCLC is 3.71 µM; in the experiment on LOX IMVI melanoma it was 4.33 µM; with MCF7 breast it was greater than 100 µM; in the experiment with MDA-MB-435 it was 31.6 µM; with NCI-H460 lung, greater than 100 µM; with NCI-H522 lung it was 4.82 µM. In addition, the TGI was greater than 100 µM in the experiment on OVCAR-3 ovarian; greater than 100 µM in the experiment on OVCAR-4 ovarian; 91.5 µM in the experiment with PC-3 prostate; 3.05 µM with SF-268 CNS; greater than 100 µM in the experiment on SK-OV-3 ovarian; 3.23 µM in the experiment with SN12C renal.

As for `COc1cccc(Nc2nc(N)nc(N)c2N)c1`, the TGI with A549 NSCLC, in the experiment with ACHN renal, with BT-549 breast, in the experiment on DU-145 prostate, in the experiment on HL-60(TB) leukemia and in the experiment with HOP-62 NSCLC was greater than 100 µM throughout. Moreover, the TGI in the experiment on HOP-92 NSCLC is greater than 100 µM; with LOX IMVI melanoma, 40.2 µM; in the experiment on MCF7 breast it was 95 µM; in the experiment with MDA-MB-435 it was greater than 100 µM; in the experiment on NCI-H460 lung, 43.6 µM; in the experiment with NCI-H522 lung, greater than 100 µM. The TGI in the experiment with OVCAR-3 ovarian was greater than 100 µM; in the experiment with OVCAR-4 ovarian, greater than 100 µM; with PC-3 prostate it was greater than 100 µM; in the experiment with SF-268 CNS, greater than 100 µM; in the experiment with SK-OV-3 ovarian, greater than 100 µM; with SN12C renal it was 37.8 µM.

Regarding `COC(=O)C1=C(C)NC(C)=C(C(=O)OC)C1c1ccc(N=O)cc1`, the TGI in the experiment on A549 NSCLC was greater than 60.3 µM; in the experiment with ACHN renal, 26.7 µM; in the experiment on BT-549 breast, 23 µM; in the experiment on DU-145 prostate, 19.2 µM; in the experiment with HL-60(TB) leukemia, greater than 100 µM; in the experiment on HOP-62 NSCLC, greater than 55.3 µM. Moreover, the TGI in the experiment on HOP-92 NSCLC was found to be 8.95 µM; in the experiment with LOX IMVI melanoma it was 11.6 µM; in the experiment with MCF7 breast, 37 µM; in the experiment on MDA-MB-435, 32.6 µM; in the experiment on NCI-H460 lung, 41.9 µM; in the experiment with NCI-H522 lung, 6.61 µM. Further, the TGI came to 26.9 µM in the experiment with OVCAR-3 ovarian; 14.2 µM in the experiment on OVCAR-4 ovarian; 29.3 µM in the experiment with PC-3 prostate; 43.9 µM in the experiment on SF-268 CNS; 25.5 µM in the experiment with SK-OV-3 ovarian; 35.8 µM in the experiment with SN12C renal.

On to `CCN(CC)c1ccc(/C=C/C(=O)c2cc(C(C)(C)C)c(O)c(C(C)(C)C)c2)cc1`, for which the TGI was greater than 100 µM with A549 NSCLC; greater than 100 µM with ACHN renal; greater than 100 µM with BT-549 breast; greater than 100 µM in the experiment on DU-145 prostate; greater than 39.2 µM with HL-60(TB) leukemia; greater than 100 µM in the experiment on HOP-62 NSCLC. The TGI in the experiment with HOP-92 NSCLC is greater than 100 µM; with LOX IMVI melanoma, greater than 100 µM; in the experiment with MCF7 breast it was greater than 100 µM; in the experiment with MDA-MB-435, 13.3 µM; in the experiment with NCI-H460 lung, 38.2 µM; with NCI-H522 lung it was 10.2 µM. Moreover, the TGI in the experiment on OVCAR-3 ovarian is greater than 100 µM; in the experiment on OVCAR-4 ovarian it was greater than 100 µM; with PC-3 prostate, greater than 100 µM; with SF-268 CNS it was greater than 52.9 µM; in the experiment on SK-OV-3 ovarian, greater than 100 µM; with SN12C renal, greater than 84 µM.
